{"source": "patent US20160264616A1", "about": "“THERAPEUTIC COMPOUNDS AND METHODS” (priority 2015, published 2016)", "molecular_target": "T1, Gαo (Homo sapiens, UniProt P09471)", "T1 construct": "6xHis; made in house; host or cells: BL21 (DE3) E. coli (printed 'B1-21 (DE3)')", "T1 sequence (P09471 whole entry)": "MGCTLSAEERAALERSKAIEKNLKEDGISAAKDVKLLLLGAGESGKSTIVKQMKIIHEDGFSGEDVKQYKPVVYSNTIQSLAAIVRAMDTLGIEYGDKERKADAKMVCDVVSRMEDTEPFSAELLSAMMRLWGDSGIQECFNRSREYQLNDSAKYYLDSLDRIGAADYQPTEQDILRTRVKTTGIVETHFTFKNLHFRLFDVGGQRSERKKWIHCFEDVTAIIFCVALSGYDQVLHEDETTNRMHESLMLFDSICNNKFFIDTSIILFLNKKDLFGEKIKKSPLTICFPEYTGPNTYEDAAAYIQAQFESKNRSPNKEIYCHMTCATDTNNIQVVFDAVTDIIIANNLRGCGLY", "experiment": "Differential scanning fluorimetry (DSF) with Gαo", "format": "binding", "settings": "50 μM compound", "procedure": "Further evaluation of the compounds designated UI-5, UI-1590, UI-1907 and UI-1956 was conducted using Differential Scanning Fluorimetry (DSF). This method allows for the rapid measurement of protein stability based on the melting temperature (Tm) of the target protein that is bound by ligand. A shift of Tm indicates a change in protein stability to melting due to stabilization added by the small molecule binding to the target protein. The four compounds were incubated at 50 μM with RGS17 or Gαo in the presence of Sypro Orange. In aqueous solution the fluorescence emission from the dye is very weak. […] The hydrophobic parts of a native, fully folded, protein in solution are generally buried within the protein and therefore not accessible to the dye resulting in little fluorescence emission. When the protein unfolds the dye molecules can bind to the exposed hydrophobic regions of the proteins, resulting in increased fluorescence. […]\nDifferential scanning fluorimetry experiments were carried out using white 384-well μltraAMP PCR plates (Sorenson BioSciences; Salt Lake City, Utah). […] All data was collected using the Roche LightCycler data acquisition ability and analyzed with Graphpad Prism 6.0, using first and second derivatives of the fluorescent melting curves."}
{"smiles": "CC(C)=CCC[C@]1(C)C=Cc2c(O)c3c(c(CC=C(C)C)c2O1)O[C@]12C(=C[C@@H]4C[C@H]1C(C)(C)O[C@@]2(C/C=C(/C)C(=O)O)C4=O)C3=O", "note": "[UI-1907]", "values": [{"measurement": "effect on Gαo thermal stability (DSF)", "value": "decrease the thermal stability of the Gαo subunit"}]}
